{"source": "patent US9309314B2", "about": "“Polypeptides, nucleic acids and uses thereof” (AGENCY FOR SCIENCE, TECHNOLOGY AND RESEARCH (A*STAR), priority 2013, dated 2016)", "system": "ELA processing and secretion", "assay": "Xenopus secretion assay", "format": "cell-based", "details": "Xenopus laevis embryos injected with human ELA mRNA; increasing amounts", "protocol": "ZFNs were purchased from Sigma-Aldrich. 250 pg of mRNAs encoding the ZFN pair were injected into 1-cell stage embryos. ZFN binding sites within exon 1 are as follows: 5′_[…] 3′ (SEQ ID NO: 133) and 5′_[…]_3′ (SEQ ID NO: 134). Sequencing primers flanking the mutation sites are: forward 5′_[…]_3′ (SEQ ID NO: 135), reverse 5′[…]_3′ (SEQ ID NO: 136). For ela overexpression, 200 pg of SP6-transcribed zebrafish ela capped mRNA (Applied Biosystems) was injected into 1-cell stage zebrafish embryos. Translation blocking MOs used for aplnra and aplnrb have been described previously (Scott et al., 2007; Zeng et al., 2007) and were purchased from Gene tools (Oregon, USA). Embryos were injected at 1-cell stage with a combination of 1 ng of aplnra MO and 0.5 ng of aplnrb MO (Zeng et al., 2007). Information on probes used for q-PCR and WISH can be found in Tables E1 and E2. Zebrafish embryos at 100% epiboly were dechorionated and processed for western blotting as previously described (Link et al., 2006). For the Xenopus secretion assay, 16 ng of SP6-transcribed human ELA capped mRNA (Applied Biosystems) was injected into each cell of 4-cell stage embryos. At stage 8, embryos were dechorionated and dissociated in CMFM medium with 5 mM EDTA. […]", "note": "Entries after “also recorded” stand apart in the source; their conditions may differ."}
{"smiles": "C[C@H]1CCC/C=C/[C@@H]2C[C@H](O)C[C@H]2[C@H](O)/C=C/C(=O)O1", "note": "[Brefeldin A]", "values": [{"measurement": "ELA processing and secretion", "value": "able to block ELA processing and secretion; also recorded: blocks ELA processing"}]}
